Measurements reported in patent US20010029347A1, “Transdermal administrating device” (POLYTRONICS, LTD., priority 2000, published 2001).

Key:
[1] = Concentration of Polyoxomethalate ion in blood of nude mouse during iontophoresis with transdermal administrating device V (Example 5, no bias power supply); format: in vivo
Method: When the transdermal administrating device V according to Example 5 was loaded on the back of a nude mouse, the chemical cell formed by the active electrode 22 and the inert electrode 24 generated an electromotive force of about 2.9V.
Removing the variable resistor 31 out of the circuit, the measurement and arithmetic operation for Rd and the measurement of the blood concentration in blood [M^−] were performed to prepare a calibration line representing the relationship between the Rd and the [M^−].
Next, a Rd0 value corresponding to a target concentration [M^−]0 was determined from the calibration line and the variable resistor […] was connected to the circuit.
The concentration of drug was controlled by controlling the value of the variable resistor 31 with measuring the Rd at varying times.

[2] = design: species or system HWY hairless rats; conditions: HWY hairless, rat, in vivo
Method: Transdermal administrating devices were attached on the back of each body of HWY hairless rats. A number of the rats were three a group. The concentration of L-ascorbic acid in blood was chemically detected to control the drug concentration in the blood [M^−]. The procedure thereof is described hereunder.
First, a calibration line was prepared. The EB was set at 1.5 V and the transdermal administrating device was attached on the back of each of the test rats.
In addition, blood examination for the rats was performed at those times. From the blood examination, the concentration of ascorbic acid in blood [M^−] was determined.
Next, using the calibration line shown in FIG. 5, the concentration of ascorbic acid in blood [M^−] was promptly converged to a constant value.
According to the indication from the CPU 6, the bias DC power supply 7 was operated to set EB=8V.
When the concentration of ascorbic acid in blood [M^−] should be maintained at a constant value, for example, at 5 (arb. unit) in FIG. 5, the Rd0 should be 6.3 kΩ (kilo ohm) based on the calibration line shown in FIG. 5.
In this case, when the Rd was determined, the EB was temporarily changed to 1.5 V and the voltage drop Vi at the external load was measured.
At the measurement after the current flowing time has elapsed for 20 minutes, the Rd was lower than the Rd0. The CPU 6 operated to feed back the bias voltage to reduce the bias voltage EB.

time after the beginning of flowing a current from which blood concentration [M-] is kept at the target concentration ([1]; control by variable resistor, no bias DC power supply) | permeability (iontophoresis through skin) ([1]; without bias DC power supply) | concentration of ascorbic acid in blood [M-], overshoot value [2] | time after the beginning of flowing a current to converge to constant blood concentration [2] | concentration of ascorbic acid in blood [M-], converged constant value ([2]; 1.5 hours) [arb. unit] | Compound
about 2 hours | high permeability |  |  |  | K5[SiVW11O40] [Polyoxomethalate ion]
 |  | about 6.5 arb. unit | about 1.5 hours | ~5 | O=C1O[C@H]([C@@H](O)CO)C(O)=C1O [ascorbic acid, L-ascorbic acid]
